Measured values as given in US20110223671A1, “Methods for using positively and negatively selectable genes in a filamentous fungal cell” (priority 2008, published 2011).

Tests used:
Assay type in all cases: cell-based
[1] = system: Fusarium venenatum WTY1449-03-03 (bar+, tk+); assay: Growth of spores of bar+, tk+ strain on FdU- and uridine-supplemented VNO3RLMT plates; conditions: 6 days, 28° C.
Description: To this end the bar+, tk+ strain Fusarium venenatum WTY1449-03-03 was revived on VNO3RLMT-BASTA™ plates (as described in Example 1) and induced to produce spores as described in Example 5. After harvesting and washing, the spores were plated (50,000 spores per 14 cm diameter plate) to FdU-supplemented VNO3RLMT plates containing 50 μM FdU and varying concentrations of uridine (0.1-1 mM). These plates were incubated at 28° C. in ChexAll Instant Seal Sterilization Pouches for 6 days, after which they were evaluated for growth.

[2] = system: Fusarium venenatum WTY842-1-11; assay: Sensitivity testing of Fusarium venenatum WTY842-1-11 to FdU (plug growth on VNO3RLMT); conditions: 14 days
Description: For a thymidine kinase gene (tk) to be useful as a negatively selectable marker, a fungus must be […] to rather high concentrations of the nucleoside analog 5-fluoro-deoxyuridine (FdU). In order to ascertain the degree of sensitivity of Fusarium venenatum WTY842-1-11 to FdU, a one week old culture of Fusarium venenatum WTY842-1-11 was prepared by plating a colonized agar plug of the strain taken from a 10% glycerol stock, which had been stored at −140° C., onto a VNO3RLMT plate and incubating in a ChexAll Instant Seal Sterilization Pouch (Fisher Scientific, Pittsburgh, Pa., USA) for 7 days at 26-28° C. After 7 days plugs were cut sub-marginally from the one week old culture and placed face down on VNO3RLMT medium supplemented with different concentrations of FdU (0 to 500 μM) (Sigma Chemical Co., St. Louis, Mo., USA) in 6 well plates. The plates were incubated at 26-28° C. in open ZIPLOC® bags (S.C. Johnson Home Storage, Inc., Racine, Wis., USA) for 14 days, after which the extent of growth at each FdU concentration was recorded.

[3] = system: Fusarium venenatum WTY1449-9-1 (tk-); assay: Reconstruction experiment, growth on FdU-supplemented minimal media, tk- strain; conditions: 50 μM FdU
Description: (§1) To determine whether very low uridine concentrations could confer resistance to FdU in a tk+ strain, a reconstruction experiment was performed. The tk+ strain Fusarium venenatum WTY1449-3-3 and the tk− strain Fusarium venenatum WTY1449-9-1 were used. Spores of each strain were induced and plated at 50 spores per plate (Fusarium venenatum WTY1449-9-1) or 50,000 spores per 14 cm diameter plate (Fusarium venenatum WTY1449-3-3). In addition, a combination of WTY1449-3-3 and WTY1449-9-1 spores, […], were mixed and plated. All plates contained VNO3RLMT supplemented with 50 μM FdU. The uridine concentration in the plates was 1, 0.5, 0.25, or 0.1 mM. Each treatment was performed in triplicate.
(§2) Colonies appearing on the plates on which mixtures of tk+ and tk− spores had been plated were sub-cultured to fresh plates of VNO3RLMT medium supplemented with 50 μM FdU (NO uridine). An equivalent number of samples were also sub-cultured from the background growth (3 colonies per mixed plate) to VNO3RLMT+50 μM FdU (No uridine). In addition, colonies and background growth were sub-cultured from pure tk− plates and pure tk+ plates to plates of VNO3RLMT+50 μM FdU (no uridine). […]

[4] = system: Fusarium venenatum EmY1154-46-4.3 (pyrG-deleted); assay: Germination efficiency of spores of pyrG-deleted strain on uridine- and FdU-supplemented media
Description: Germination efficiency of spores from the pyrG-deleted Fusarium venenatum strain EmY1154-46-4.3 on uridine- and FdU-supplemented media was tested. Spores of Fusarium venenatum EmY1154-46-4.3 were generated as described in Example 5 using RA medium supplemented with 10 mM uridine. Fifty spores in a volume of 200 μl were aliquoted to each of 45 VNO3RLMT plates (14 cm diameter) supplemented with 0, 25, or 50 μM FdU and 0, 0.01, 0.05, 0.1, or 0.25 mM uridine. Triplicate plates of each combination of FdU and uridine were set up and incubated in ChexAll Instant Seal Sterilization Pouches at 26° C. for 10 days.

[5] = system: Fusarium venenatum WTY1449-3-3 (tk+); assay: Reconstruction experiment, growth on FdU-supplemented minimal media, tk+ strain; conditions: 50 μM FdU
Description: as §1, §2

O=c1[nH]c(=O)n([C@H]2C[C@H](O)[C@@H](CO)O2)cc1F [FdU, 5-fluoro-deoxyuridine]
growth ([1]; 50 μM FdU plus uridine 0.1-1 mM): extensive growth
growth ([1]; 50 μM FdU, without uridine): no growth
sensitivity (extent of growth) to FdU ([2]; FdU 0 to 500 μM, VNO3RLMT, 26-28° C.): insensitive
FdU concentration at which growth was slightly reduced ([2]; compared to concentrations of 50 μM and below): greater than 100 μM
growth ([3]; all concentrations of uridine and medium lacking uridine): grew well
growth after sub-culture ([3]; uridine-deficient media): grew normally
spore germination frequency ([4]; 25 and 50 μM FdU, uridine 0.1 mM, 75% in the absence of FdU): approximately 50%
spore germination ([4]; 25 or 50 μM FdU, uridine 0.01 mM, 10 days, 26° C.): could not germinate
growth ([5]; uridine 0.1-1 mM plates): grew as a uniform haze
growth after sub-culture ([5]; uridine-deficient media): could absolutely not grow
